# Measurements taken from PubChem BioAssay AID248 (DTP/NCI, 2004).
# Values joined by “and” are separate entries in the source; they are usually repeats but may differ in a detail not shown here. Equal entries are not always repeated. Inconclusive results and toxic doses are left out.
# System: L1210 leukemia ip in BDF1 mice, survival T/C
# Experiment: NCI In Vivo Anticancer Drug Screen. Data for tumor model L1210 Leukemia (intraperitoneal) in B6D2F1 (BDF1) mice
# Conditions: endpoint: mean survival time, higher = longer survival
# Outline: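 Transplantable tumor model; survival measured in treated vs vehicle control mice. Value = treated/control.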
# [1] = dose: 100.0 mg/kg/injection, schedule: Q01DX001 (ip), vehicle: other
# [2] = dose: 100.0 mg/kg/injection, schedule: Q04DX003 (ip), vehicle: Klucel (hydroxypropylcellulose) (HPC)
# [3] = dose: 200.0 mg/kg/injection, schedule: Q04DX003 (ip), vehicle: Klucel (hydroxypropylcellulose) (HPC)
# [4] = dose: 400.0 mg/kg/injection, schedule: Q04DX003 (ip), vehicle: Klucel (hydroxypropylcellulose) (HPC)
# [5] = dose: 100.0 mg/kg/injection, schedule: Q01DX009 (ip), vehicle: saline with Tween-80
# [6] = dose: 200.0 mg/kg/injection, schedule: Q01DX009 (ip), vehicle: saline with Tween-80
# [7] = dose: 400.0 mg/kg/injection, schedule: Q01DX009 (ip), vehicle: saline with Tween-80
# [8] = dose: 100.0 mg/kg/injection, schedule: Q04DX002 (ip), vehicle: saline with Tween-80
# [9] = dose: 200.0 mg/kg/injection, schedule: Q04DX002 (ip), vehicle: saline with Tween-80
# [10] = dose: 400.0 mg/kg/injection, schedule: Q04DX002 (ip), vehicle: saline with Tween-80
# [11] = dose: 25.0 mg/kg/injection, schedule: Q04DX002 (ip), vehicle: saline
# [12] = dose: 50.0 mg/kg/injection, schedule: Q04DX002 (ip), vehicle: saline
# [13] = dose: 50.0 mg/kg/injection, schedule: Q01DX001 (ip), vehicle: Klucel (hydroxypropylcellulose) (HPC)
# [14] = dose: 100.0 mg/kg/injection, schedule: Q01DX001 (ip), vehicle: Klucel (hydroxypropylcellulose) (HPC)
# [15] = dose: 200.0 mg/kg/injection, schedule: Q01DX001 (ip), vehicle: Klucel (hydroxypropylcellulose) (HPC)
# [16] = dose: 100.0 mg/kg/injection, schedule: Q04DX003 (ip), vehicle: saline with Tween-80
# [17] = dose: 200.0 mg/kg/injection, schedule: Q04DX003 (ip), vehicle: saline with Tween-80
# [18] = dose: 400.0 mg/kg/injection, schedule: Q04DX003 (ip), vehicle: saline with Tween-80
# [19] = dose: 100.0 mg/kg/injection, schedule: Q01DX009 (ip), vehicle: Klucel (hydroxypropylcellulose) (HPC)
# [20] = dose: 200.0 mg/kg/injection, schedule: Q01DX009 (ip), vehicle: Klucel (hydroxypropylcellulose) (HPC)
# [21] = dose: 100.0 mg/kg/injection, schedule: Q01DX001 (ip), vehicle: saline with Tween-80
# [22] = dose: 400.0 mg/kg/injection, schedule: Q01DX001 (ip), vehicle: saline with Tween-80
# [23] = dose: 400.0 mg/kg/injection, schedule: Q01DX009 (ip), vehicle: Klucel (hydroxypropylcellulose) (HPC)
smiles,measurement,setting,value
Nc1c(-c2ccccc2)nnn1-c1ccc2ccccc2c1,T/C,"dose: 100.0 mg/kg/injection, schedule: Q04DX002 (ip), vehicle: gum acacia",101 % of control
same,T/C,"dose: 200.0 mg/kg/injection, schedule: Q04DX002 (ip), vehicle: gum acacia",96 % of control
same,T/C,"dose: 400.0 mg/kg/injection, schedule: Q04DX002 (ip), vehicle: gum acacia",96 % of control
Cc1ccc(NC(=O)N(CCCl)N=O)c(C)c1,T/C,"dose: 10.0 mg/kg/injection, schedule: Q01DX009 (ip), vehicle: other",180 % of control
same,T/C,"dose: 16.0 mg/kg/injection, schedule: Q01DX009 (ip), vehicle: other",241 % of control
same,T/C,"dose: 24.0 mg/kg/injection, schedule: Q01DX009 (ip), vehicle: other",158 % of control
same,T/C,"dose: 25.0 mg/kg/injection, schedule: Q01DX001 (ip), vehicle: other",153 % of control
same,T/C,"dose: 50.0 mg/kg/injection, schedule: Q01DX001 (ip), vehicle: other",158 % of control
same,T/C,[1],101 % of control
Cc1ccc(S(=O)(=O)/N=S(\CCCl)CCc2ccccc2)cc1 (stereo not given),T/C,[2],97 % of control
same,T/C,[3],97 % of control
same,T/C,[4],90 % of control
CC(=O)OC1C=CS(=O)(=O)C1 (stereo not given),T/C,[5],94 % of control
same,T/C,[6],103 % of control
same,T/C,[7],96 % of control
O=C(O)c1ccccc1N=Cc1ccccc1,T/C,[8],93 % of control
same,T/C,[9],120 % of control
same,T/C,[10],101 % of control
CC(C)CNC(=O)c1cccc(-c2ccccc2C(=O)NCC(C)C)c1,T/C,[1],91 % of control
same,T/C,"dose: 200.0 mg/kg/injection, schedule: Q01DX001 (ip), vehicle: other",93 % of control
same,T/C,"dose: 400.0 mg/kg/injection, schedule: Q01DX001 (ip), vehicle: other",96 % of control
CN(C)CCNc1ccccn1,T/C,"dose: 75.0 mg/kg/injection, schedule: Q01DX001 (ip), vehicle: saline",98 % of control
same,T/C,"dose: 150.0 mg/kg/injection, schedule: Q01DX001 (ip), vehicle: saline",104 % of control
C=CCSC(=S)N(C)C,T/C,[11],101 % of control
same,T/C,[12],89 % of control
CC1(C(=O)c2ccccc2)CN(C(C)(C)C)C1c1ccccc1 (stereo not given),T/C,[13],97 % of control
same,T/C,[14],95 % of control
same,T/C,[15],94 % of control
CC(O)CC[P+](c1ccccc1)(c1ccccc1)c1ccccc1 (stereo not given),T/C,"dose: 75.0 mg/kg/injection, schedule: Q01DX001 (ip), vehicle: other",101 % of control
same,T/C,"dose: 150.0 mg/kg/injection, schedule: Q01DX001 (ip), vehicle: other",93 % of control
CC1(C)CC(=O)C2=C(C1)OC1=C(C(=O)CC(C)(C)C1)C2c1ccccc1[N+](=O)[O-],T/C,[16],98 % of control
same,T/C,[17],88 % of control
same,T/C,[18],97 % of control
Cn1c(SCc2ccccc2)nccc1=O,T/C,[19],96 % of control
same,T/C,[20],104 % of control
CSc1ccc(NC(=O)Nc2ccc(F)cc2)cc1,T/C,[19],96 % of control
same,T/C,[20],97 % of control
CCC(=O)NC(CC(C)C)C(=O)NC(CC(C)C)C(=O)NC(C=O)CCCN=C(N)N (stereo not given) (tested in a mixture with another compound),T/C,[11],98 % of control
same,T/C,[12],91 % of control
same,T/C,"dose: 100.0 mg/kg/injection, schedule: Q04DX002 (ip), vehicle: saline",91 % of control
Cc1ccc(S(=O)(=O)OCC2C3CCC(C4CCC43)C2COS(=O)(=O)c2ccc(C)cc2)cc1 (stereo not given),T/C,[2],96 % of control
same,T/C,[3],93 % of control
same,T/C,[4],91 % of control
NCCCCC(N)C(=O)NCCCCCCN(CCCCCCNC(=O)C(N)CCCCN)C(=O)C(N)CCCCN (stereo not given),T/C,"dose: 100.0 mg/kg/injection, schedule: Q01DX001 (ip), vehicle: saline",92 % of control
N/N=C(/C=N/N)C(O)CO (stereo not given),T/C,"dose: 25.0 mg/kg/injection, schedule: Q01DX001 (ip), vehicle: saline with Tween-80",95 % of control
same,T/C,"dose: 50.0 mg/kg/injection, schedule: Q01DX001 (ip), vehicle: saline with Tween-80",98 % of control
same,T/C,[21],89 % of control and 92 % of control
same,T/C,[22],92 % of control
COc1ccc(NC(=O)N(c2ccccc2)C(C)C)c(OC)c1,T/C,[19],97 % of control
same,T/C,[20],94 % of control
same,T/C,[23],102 % of control
CC(=O)n1c2c(n(C(C)=O)c1=O)CCCC2,T/C,[21],102 % of control
same,T/C,"dose: 200.0 mg/kg/injection, schedule: Q01DX001 (ip), vehicle: saline with Tween-80",98 % of control
same,T/C,[22],102 % of control
CCCCN(CCC#N)C(N)=O,T/C,"dose: 100.0 mg/kg/injection, schedule: Q01DX Z (ip), vehicle: methylcellulose (MC)",100 % of control
N/C(=N\O)c1ccc(Cl)cc1,T/C,[16],104 % of control
same,T/C,[17],98 % of control
CC(=O)Nc1nc(/C=C/C(=O)CCl)c(CCCCc2ccccc2)c(=O)[nH]1,T/C,[13],93 % of control
same,T/C,[14],102 % of control
same,T/C,[15],96 % of control
C=CCS(=O)(=O)CC=C,T/C,[5],92 % of control
same,T/C,[6],92 % of control
same,T/C,[7],93 % of control
COc1ccc(/C=C(\CC(=O)O)C(=O)O)cc1OC,T/C,[19],92 % of control
same,T/C,[2],96 % of control
same,T/C,[20],95 % of control
same,T/C,[3],91 % of control
same,T/C,[23],95 % of control
same,T/C,[4],102 % of control
O=C(NCCc1ccccc1)c1ccccc1,T/C,[16],112 % of control
same,T/C,[17],102 % of control
same,T/C,[18],100 % of control
O=C(COc1ccccc1Cl)NCc1ccc(Cl)cc1,T/C,[19],92 % of control
same,T/C,[2],93 % of control
same,T/C,[20],88 % of control
same,T/C,[3],95 % of control
same,T/C,[23],103 % of control
same,T/C,[4],93 % of control
COc1cccc(NC(=O)CCC(=O)O)c1,T/C,"dose: 25.0 mg/kg/injection, schedule: Q01DX009 (ip), vehicle: saline with Tween-80",105 % of control
same,T/C,"dose: 50.0 mg/kg/injection, schedule: Q01DX009 (ip), vehicle: saline with Tween-80",100 % of control
same,T/C,"dose: 50.0 mg/kg/injection, schedule: Q04DX003 (ip), vehicle: saline with Tween-80",98 % of control
same,T/C,[16],103 % of control
same,T/C,[6],88 % of control
same,T/C,[17],97 % of control
same,T/C,[7],95 % of control
same,T/C,[18],103 % of control
O=[N+]([O-])c1ccc(N=C/C=C/c2ccccc2)cc1,T/C,[5],88 % of control
same,T/C,[6],94 % of control
same,T/C,[7],104 % of control
COC(=O)C1C2CCC3C2C(C)(C)CCCC31C (stereo not given),T/C,[2],98 % of control
same,T/C,[3],106 % of control
same,T/C,[4],103 % of control
CCOC(=O)C1C2/C=C/CCCCC21 (stereo not given),T/C,[8],105 % of control
same,T/C,[9],112 % of control
same,T/C,[10],98 % of control
Cc1ccc(S(=O)(=O)OCCN(CCOS(=O)(=O)c2ccc(C)cc2)c2cccc(F)c2)cc1,T/C,"dose: 50.0 mg/kg/injection, schedule: Q01DX001 (ip), vehicle: carboxymethylcellulose (CMC)",101 % of control and 114 % of control
same,T/C,"dose: 90.0 mg/kg/injection, schedule: Q01DX001 (ip), vehicle: carboxymethylcellulose (CMC)",103 % of control and 122 % of control
same,T/C,"dose: 100.0 mg/kg/injection, schedule: Q01DX001 (ip), vehicle: carboxymethylcellulose (CMC)",103 % of control and 106 % of control
same,T/C,"dose: 135.0 mg/kg/injection, schedule: Q01DX001 (ip), vehicle: carboxymethylcellulose (CMC)",106 % of control and 110 % of control
same,T/C,"dose: 300.0 mg/kg/injection, schedule: Q01DX001 (ip), vehicle: carboxymethylcellulose (CMC)",115 % of control and 120 % of control
same,T/C,"dose: 400.0 mg/kg/injection, schedule: Q01DX001 (ip), vehicle: carboxymethylcellulose (CMC)",109 % of control and 116 % of control
CNC(=S)NN=C(c1ccccc1)c1ccccc1,T/C,[14],95 % of control
same,T/C,[19],91 % of control
same,T/C,[2],93 % of control
same,T/C,[15],90 % of control
same,T/C,[20],89 % of control
same,T/C,[3],87 % of control
same,T/C,"dose: 400.0 mg/kg/injection, schedule: Q01DX001 (ip), vehicle: Klucel (hydroxypropylcellulose) (HPC)",87 % of control
same,T/C,[23],93 % of control
same,T/C,[4],96 % of control
